Reference: patent US5441983A, “Treatment of infection by enveloped virus with calix(N)arene compounds” (Genelabs Incorporated, priority 1992, dated 1995)
Values after ≈ are worked out from the molar mass of the structure shown.

What was measured:
[1] = test system: HSV-1; test: Plaque reduction assay, HSV-1, Vero cells; format: cell-based, HSV-1 (Kos-1); settings: Human alphaherpesvirus 1, Vero, plaque reduction, Vero cells
Experimental: (§1) used in Table 3 were further tested for activity against HSV infection in
(§2) a plaque reduction assay, as detailed in Example 6. Here Vero cells, after
(§3) overnight incubation, were exposed to serial dilutions of KY compound,
(§4) from 0.625-10 μg/ml, and HSV-1 or HSV-2 virus for two hours. After
(§5) washing to remove drug and extracellular virus, the cells were further
(§6) incubated for 2 days, then stained and counted for plaque formation.
(§7) Percent inhibition was determined by dividing plaques produced by total
(§8) number of plaques in infected, untreated controls. From the concentration
(§9) effect curve of plaque inhibition (expressed as percent of control), the
(§10) concentration of compound required to produce 50% plaque reduction,
(§11) IC50, was determined. The IC50 values for infection by HSV-1 and
(§12) HSV-2 infection is given in the right-hand columns in Table 3. With

[2] = test system: HIV-RF-II; test: Inhibition of syncytia formation, HIV-RF-II; settings: for EC100: Human immunodeficiency virus 1, 18 h, read-out: HIV-RF-II ED100, complete inhibition of syncytia formation
[3] = test system: HSV-2; test: Plaque reduction assay, HSV-2, Vero cells; format: cell-based, HSV-2 (333); settings: Human alphaherpesvirus 2, Vero
Experimental: as §1, §2, §3, §4, §5, §6, §7, §8, §9, §10, §11, §12

[4] = test system: HSV-1 or HSV-2; test: Inhibition of HSV cytopathic effect (CPE) in Vero cells; settings: 10-20 μg/ml
Experimental: In the method reported in Example 5, Vero cells were infected with HSV-1 or HSV-2 and allowed to grow in culture until cytopathic effects were clearly visible. In the absence of infection, the cells form an even monolayer of fibro-blastlike cells. With HSV infection, a cytopathic effect characterized by round cells in suspension is clearly evident after 24 hours, followed by clumping and lysis of infected cells after 24-72 hours.
In the drug inhibition study reported in Example 5, cells were exposed to HSV-1 or HSV-2 virus and, at the same time, to a selected aryl macrocyclic compound, at a final drug concentration of 10 μg/ml. Twenty-four hours later the cells were examined for cytopathic effect.
Vero cells were maintained in RPMI-1640 medium supplemented with 5% fetal calf serum, 100 Units of penicillin per ml and 100 μg of streptomycin per ml at 37° C. in a humidified incubator containing 7% CO2. The HSV strains HSV-1 (Kos-1) and HSV-2 (333) were used.
1×10^5 Vero cells were plated in each well of a 96 well microtitre plate in 0.2 ml RPMI-1640 medium containing 5% FCS and 0.1% methyl cellulose (15 cps). After overnight incubation, and cell doubling, the medium was aspirated and replaced with 100 .1 of the same medium containing 2% FCS, and 50.1 control or drug solution to a final drug concentration of 10 μg/ml and 50 μl virus, containing about 3 PFU/cell, i.e., 6 x 10^s PFU/well, of HSV-1 or HSV-2.
The cells were cultured for 24 hours at 37° C. at which time cytopathic effects are clearly visible. In the absence of viral infection, the cells form an even monolayer of fibroblast cells. With viral infection, the cells form a suspension of round cells, followed by cell clumping, whose appearance is easily distinguishable from normal fibroblast cells. If no detectable cytopathic effect was produced, the test was repeated with 10 μg/ml. A parallel set of cells without virus inoculation were done as a control for cytotoxicity to Vero cells.

[5] = test system: HIV-HXB; test: Inhibition of syncytia formation, HIV-HXB (HTLV-IIIB); settings: Human immunodeficiency virus 1, 18 h, read-out: HIV-HXB ED100, complete inhibition of syncytia formation
Experimental: Briefly, cells chronically infected with HTLV-IIIB or RF-II HIV strains were incubated in the presence of serial dilutions of the selected KY compound, then further cocultured with indicator cells. The extent of syncytia formation was scored under phase microscopy.
Representative calix(n)arene compounds from Table 2 were tested for inhibition of cytopathic effects in cells infected with one of two HTLV-III strains, HTLV-IIIB and RF-II strains, as described in Example 12, and in the subsection above.
Human CD4^+ indicator cells (VB) and chronically infected H9 cells were maintained in RPMI-1640 medium supplemented with 5% fetal calf serum, 100 Units of penicillin per ml and 100 μg of streptomycin per ml at 37° C. in a humidified incubator containing 7% CO2.
For the fusion assay, serial dilutions between 1:2 and 1:2^8 of a selected KY compound, 1 mg/ml in PBS were made in a 96 well round bottom plate. The diluted KY compound was transferred to a 96 well flat-bottom plate. To each well was added 25 μg chronically infected H9 cells (at 2×10^6, cells/ml), or cells chronically infected with RF-II strain HIV, followed by incubation at 37° C. for 45 minutes. To each well was then added 25 μl VB cells (about 5×10^4 cells), and the cells and virus isolates were cocultured for 18 hours in a humid 5% CO2 atmosphere.

[6] = test system: RSV; test: Inhibition of RSV cytopathic effect in HEp2 cells; format: cell-based; settings: human respiratory syncytial virus, HEp-2; HEp2 cells, cytopathic effect; read-out: ED50 RSV
[7] = test system: panel of human cell lines; test: Cytotoxicity in proliferating human cell lines; format: cell-based; settings: Homo sapiens, 72 h, read-out: IC50 drug concentration (50% cell death)
Experimental: In addition, a large number of representative aryl macrocyclic compounds (including those shown in Tables 1 and 2) were examined for toxicity in cell culture, using a panel of human cell lines, as detailed in Example 4. Briefly, the selected KY- or Y- compound was added to cell cultures at a final concentration of 5, 10, 25, 50, or 100 μg/ml. Three days later the cells were washed to remove drug, and stained with a vital stain, to determine the percentage of dead cells in each culture. The IC50 drug concentration, i.e., value concentration of drug which produced 50% cell death, was 50 μg/ml for KY-143, KY-151, and KY-163, and 100 μg/ml or greater for all of the other KY compounds tested. For KY-1, which has a molecular weight of 1404 daltons, a drug concentration of 100 μg/ml is equivalent to about […].
A panel of human cell lines was used to check the toxicity of the drugs, including: KB (nasopharyngeal carcinoma), HeLaS3 (cervical epithelial carcinoma), PLC (hepatocarcinoma), HepG2 (human hepatocarcinoma) HepG2T14 (hepatocarcinoma transfected with HBV), WI38 (normal human lung fibroblast), BT549 (breast cancer), SW480 ([…]), and A549 (lung cancer).
Three days later, the medium was removed and the cells were stained with Commassie Blue in 40% methanol and 7% acetic acid. The results are discussed in Section II above.

[8] = test system: Influenza A (Taiwan); test: Inhibition of influenza A cytopathic effect (clumping) in MDCK cells; format: cell-based, Influenza A virus (A/Taiwan strain); settings: Influenza A virus, 24 h, 50% reduction in percent clumped cells, read-out: ED50 Influenza A (Taiwan)
Experimental: With virus infection, a cytopathic effect characterized by cell clumping is observed. For each compound tested, drug concentrations of 0.1, 1, 10, 25, and 100 μg/ml were added to cultured cells at the time of virus infection, as detailed in Examples 9 and 11. […] The inhibition of clumping was plotted as a function of drug concentration, to determine the dose effective to produce a 50% reduction in the percent clumped cells, measured with respect to control (no drug treatment).
Assays to assess the antiviral activity of KY- and Y-compounds in tissue culture were performed in 96-well flat-bottom tissue culture plates (Falcon 307), using conditions similar to those used in the cytotoxicity assays described above. In these assays, compound was tested in quadruplicate by serially diluting the compound in 2% FCS-MEM using serial two-fold dilutions (0.05 ml/well). A 0.05 ml volume of the appropriate virus containing approximately 100 median tissue culture infectious doses (TCID50) was then added to all wells except those set aside as antiviral and tissue control wells. Next, approximately 3×10^3 HEp2 cells (0.1 ml) were added to each well. Control wells containing antiviral and no virus (antiviral control), containing virus but no antiviral (virus control), or containing medium without virus or antiviral (tissue control), were included in each test. The challenge virus was then back titrated. All assay plates were incubated at 35° C. for 5 to 7 days in a 5% CO2 incubator.
The anti-influenza A activity of KY compounds was evaluated as described in Example 9, except that MDCK cells (kidney cell line) was used for infection in vitro by influenza virus (strain A/Taiwan).

[9] = test system: HSV-1 KOS (PFA)'; test: Inhibition of viral yield, drug-resistant HSV-1 KOS(PFA)'; settings: Human alphaherpesvirus 1, HeLa, read-out: ID90
Experimental: (§13) These compounds tested were the nucleoside analogs acyclovir (ACV), ganciclovir (DHPG), phosphonoformate (PFA), and phosphomethoxyethyladenine (PMEA). Inhibition of viral yield was determined, as above, by infecting Hela cells in the presence of wild type or drug-resistant strains of HSV-1 or HSV-2, and serial dilutions of a selected anti-viral compound, and infecting Vero cells with serial dilutions of the Hela cell lysate, as above.
(§14) The KOS (HSV-1) and 333 (HSV-2) are wild type viruses; the KOS(PMEA)' and KOS(PFA)' are drug-resistant HSV-1 strains having a DNA polymerase mutation. The 333(DHPG) strain is a drug-resistantHSV-2 strain having a thymidine kinase mutation.
(§15) The following strains of HSV-1 and HSV-2 virus were used: KOS, a wild type HSV-1 virus; KOS (PMEA) and KOS (PFA), both drug-resistant HSV-1 viruses having a DNA polymerase mutation; 333, a wild type HSV-2 HSV-2 virus, and 333 (DHPG), a drug-resistant HSV-2 virus having a thymidine kinase mutation.
(§16) After growth at 37° C. for 24 hours in 2 ml of RPMI-1640 containing 2% FCS and penicillin and streptomycin (P/S), the cells were frozen at -70° C. until the time for titration. The cells were freeze/thawed 3 times to release virus from the cells, serially diluted 10 fold, and the serial dilutions were added to Vero cells in culture. After 2 hours incubation at 37° C. the virus was removed and 0.5 ml methycellulose (4K cps) in RPMI-1640 and 2% FCS+P/S was added. Two days later, the medium was removed. The cells were stained in 0.8% crystal violet in 50% ethanol. The plaques formed were counted and the titer was calculated from the fold of dilutions. From the drug dose response, the concentration of each drug required to effect a 90% inhibition of virus yield, the IC90 concentration was determined.

[10] = test system: HSV-2 333 (DHPG)'; test: Inhibition of viral yield, drug-resistant HSV-2 333(DHPG)'; settings: Human alphaherpesvirus 2, HeLa, read-out: ID90
[11] = test system: HSV-1 KOS; test: Inhibition of viral yield, wild type HSV-1 KOS; settings: Human alphaherpesvirus 1, HeLa, read-out: ID90
Experimental: as §13, §14, §15, §16

[12] = test system: HSV-2 333; test: Inhibition of viral yield, wild type HSV-2 333; settings: Human alphaherpesvirus 2, HeLa, read-out: ID90
[13] = test system: HSV-1 KOS(PMEA)'; test: Inhibition of viral yield, drug-resistant HSV-1 KOS(PMEA)'; settings: Human alphaherpesvirus 1, HeLa, read-out: ID90

SMILES	IC50 [1]	EC100 [2]	IC50 [3]	protection from CPE, in words [4]	EC100 [5]	other results
CNS(=O)(=O)c1cc2cc(S(=O)(=O)NC)c3c(O)c2c(O)c1Cc1c(S(=O)(=O)NC)cc2cc(S(=O)(=O)NC)c(c(O)c2c1O)Cc1c(S(=O)(=O)NC)cc2cc(S(=O)(=O)NC)c(c(O)c2c1O)Cc1c(S(=O)(=O)NC)cc2cc(S(=O)(=O)NC)c(c(O)c2c1O)C3 [KY-147]	> 10 µg/mL	250 µg/mL	> 10 µg/mL	low activity	250 µg/mL	–
COc1c2c(S(=O)(=O)O)cc3cc(S(=O)(=O)O)c(c(OC)c13)Cc1c(S(=O)(=O)O)cc3cc(S(=O)(=O)O)c(c(OC)c3c1OC)Cc1c(S(=O)(=O)O)cc3cc(S(=O)(=O)O)c(c(OC)c3c1OC)Cc1c(S(=O)(=O)O)cc3cc(S(=O)(=O)O)c(c(OC)c3c1OC)C2 [KY-151]	1.25 µg/mL (≈ 0.867 µM)	–	1.8 µg/mL (≈ 1.25 µM)	–	32 µg/mL	EC50 [6]: 1.5 µg/mL (≈ 1.04 µM); HIV-RF-II ED100 ([2]; complete inhibition of syncytia formation): 125; IC50 [7]: 50 µg/mL (≈ 34.7 µM); EC50 [8]: > 94 µg/mL
Nc1nc(O)c2ncn(COC(CO)CO)c2n1 [DHPG, ganciclovir]	–	–	–	–	–	IC90 [9]: 1 µM; IC90 [10]: 215 µM; IC90 [11]: 2 µM; IC90 [12]: 2 µM
COS(=O)(=O)c1cc2cc(S(=O)(=O)OC)c3c(O)c2c(O)c1Cc1c(S(=O)(=O)OC)cc2cc(S(=O)(=O)OC)c(c(O)c2c1O)Cc1c(S(=O)(=O)OC)cc2cc(S(=O)(=O)OC)c(c(O)c2c1O)Cc1c(S(=O)(=O)OC)cc2cc(S(=O)(=O)OC)c(c(O)c2c1O)C3 [KY-175]	> 10 µg/mL	250 µg/mL	> 10 µg/mL	low activity	63 µg/mL	–
CCNS(=O)(=O)c1cc2cc(S(=O)(=O)NCC)c3c(O)c2c(O)c1Cc1c(S(=O)(=O)NCC)cc2cc(S(=O)(=O)NCC)c(c(O)c2c1O)Cc1c(S(=O)(=O)NCC)cc2cc(S(=O)(=O)NCC)c(c(O)c2c1O)Cc1c(S(=O)(=O)NCC)cc2cc(S(=O)(=O)NCC)c(c(O)c2c1O)C3 [KY-148]	–	–	–	low activity	250 µg/mL	–
O=C(O)P(=O)(O)O [PFA, phosphonoformate]	–	–	–	–	–	IC90 [9]: > 1000 µM; IC90 [13]: 3 mM; IC90 [11]: 180 µM; IC90 [12]: 150 µM
C=CC1c2c(S(=O)(=O)O)cc3cc(S(=O)(=O)O)c(c(O)c3c2O)C(C=C)c2c(S(=O)(=O)O)cc3cc(S(=O)(=O)O)c(c(O)c3c2O)C(C=C)c2c(S(=O)(=O)O)cc3cc(S(=O)(=O)O)c(c(O)c3c2O)C(C=C)c2c(S(=O)(=O)O)cc3cc(S(=O)(=O)O)c1c(O)c3c2O (stereo not shown) [KY-97]	> 10 µg/mL	–	> 10 µg/mL	–	32 µg/mL	EC50 [6]: 0.5 µg/mL (≈ 0.349 µM); EC50 [8]: 5 µg/mL (≈ 3.49 µM)
CS(=O)(=O)c1cc2cc(S(C)(=O)=O)c3c(O)c2c(O)c1Cc1c(S(C)(=O)=O)cc2cc(S(C)(=O)=O)c(c(O)c2c1O)Cc1c(S(C)(=O)=O)cc2cc(S(C)(=O)=O)c(c(O)c2c1O)Cc1c(S(C)(=O)=O)cc2cc(S(C)(=O)=O)c(c(O)c2c1O)C3 [KY-158]	> 10 µg/mL	7500 µg/mL	> 10 µg/mL	low activity	500 µg/mL	–
